Tests used:
B. subtilis MtnX = target: T1, B. subtilis MtnX (Bacillus subtilis, UniProt O31667); assay: UV-visible spectral shift to […] nm and 1H-NMR; format: biochemical; conditions: phosphatase reaction to DHK-MTPene; pH 8.0, 35°C; substrate made in situ by T. thermophila MtnB domain
T1 sequence (O31667 1-235): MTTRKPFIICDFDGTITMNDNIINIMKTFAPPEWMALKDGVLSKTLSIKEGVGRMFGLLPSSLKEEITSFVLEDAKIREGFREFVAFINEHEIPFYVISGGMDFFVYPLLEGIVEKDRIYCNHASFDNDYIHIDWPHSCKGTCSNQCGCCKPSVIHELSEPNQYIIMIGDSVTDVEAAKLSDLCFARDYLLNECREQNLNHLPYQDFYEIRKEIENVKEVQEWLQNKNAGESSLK

MtnB domain = target: T2, MtnB domain (Tetrahymena thermophila, UniProt I7MAL0); assay: UV-visible and 1H-NMR product analysis; format: biochemical; conditions: dehydratase/enolase to HK-MTPenyl-1-P; 5 mM MgCl2, pH 8.0, 35°C; substrate made in situ from MTR-1-P by MtnA; kcat only, no Km
T2 construct: gene TTHERM_00467500

Full-length MtnBD = target: T3, Full-length MtnBD (Tetrahymena thermophila, UniProt I7MAL0); assay: UV-visible and 1H-NMR product analysis; format: biochemical; conditions: dehydratase/enolase to HK-MTPenyl-1-P; 5 mM MgCl2, pH 8.0, 35°C; substrate made in situ from MTR-1-P by MtnA; kcat only, no Km
T3 construct: gene TTHERM_00467500
T3 sequence (I7MAL0 1-400): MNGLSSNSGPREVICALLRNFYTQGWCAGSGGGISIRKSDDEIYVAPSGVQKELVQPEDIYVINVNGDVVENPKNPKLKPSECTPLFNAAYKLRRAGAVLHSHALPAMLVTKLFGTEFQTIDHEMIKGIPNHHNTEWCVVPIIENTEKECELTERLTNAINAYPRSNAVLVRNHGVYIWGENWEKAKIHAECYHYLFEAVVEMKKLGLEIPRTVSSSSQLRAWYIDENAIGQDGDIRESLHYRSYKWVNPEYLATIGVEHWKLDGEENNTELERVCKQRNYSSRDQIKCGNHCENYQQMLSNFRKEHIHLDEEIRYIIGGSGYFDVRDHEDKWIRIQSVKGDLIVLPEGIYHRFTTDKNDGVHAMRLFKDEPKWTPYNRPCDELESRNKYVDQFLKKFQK

[1] = target: MtnB domain of Tetrahymena thermophila MtnBD (Met1-Ser216), histidine-tagged recombinant protein (Tetrahymena thermophila); assay: native gel or EMSA; native-PAGE, 5-20% gradient polyacrylamide gel, non-denaturing conditions, 1 ug purified protein, mass estimated against native high molecular weight markers; oligomer size from native mass over calculated monomer mass
[2] = target: Tetrahymena thermophila MtnBD, full-length, histidine-tagged recombinant protein (Tetrahymena thermophila); assay: as above

With `CSCCC(=O)C(O)=COP(=O)(O)O` [HK-MTPenyl-1-P] as the compound, how does the “UV-visible spectral shift to 310 nm and 1H-NMR” value (B. subtilis MtnX) read?
The value was “DHK-MTPene was obtained from the reaction of B. subtilis MtnX with HK-MTPenyl-1-P”.

With `CSC[C@@H](O)[C@@H](O)C(=O)COP(=O)(O)O` [MTRu-1-P] as the compound, how does the “UV-visible and 1H-NMR product analysis” value (MtnB domain) read?
The value was “MtnB domain catalyzed the dehydration/enolization reactions to convert MTRu-1-P to HK-MTPenyl-1-P”.

And the “UV-visible and 1H-NMR product analysis” value (Full-length MtnBD)?
The value was “T. thermophila MtnBD catalyzed the conversion of MTRu-1-P to HK-MTPenyl-1-P”.

With “MtnB domain of Tetrahymena thermophila MtnBD (Met1-Ser216), histidine-tagged recombinant protein (domain or fragment)” as the compound, how does the stoichiometry N [1] read?
Its stoichiometry N is 6.

Which stoichiometry N [2] does the source give for “Tetrahymena thermophila MtnBD, full-length, histidine-tagged recombinant protein (enzyme)” here?
Its stoichiometry N is 6.

— article PMC3698126, “MtnBD Is a Multifunctional Fusion Enzyme in the Methionine Salvage Pathway of Tetrahymena thermophila” (PLoS ONE, 2013)
